This note sets out measurements from patent US9670227B2, “Thienopyrimidine derivatives, a process for their preparation and pharmaceutical compositions containing them” (LES LABORATOIRES SERVIER, priority 2013, dated 2017).

Like-named read-outs stand apart in the source and are kept apart here.

The target of one assay is Mcl-1 protein (UniProtKB primary accession number: Q07820) (Homo sapiens, UniProt Q07820). As to the kind of experiment: Inhibition of Mcl-1 by fluorescence polarisation, Method 1. The assay is classed as binding. The settings on record: read-out: IC50 (M) Mcl-1 FP. The essentials: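 Buffer of 10 mM HEPES pH 7.4 with 150 mM NaCl and 0.05% Tween 20 held 5 nM Mcl-1 and 1 nM fluorescein-tagged ligand (final). Compounds were tested as 11-point serial dilutions at 5% final DMSO, and binding was read by FP.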
Chain of Mcl-1 protein (Q07820 whole entry): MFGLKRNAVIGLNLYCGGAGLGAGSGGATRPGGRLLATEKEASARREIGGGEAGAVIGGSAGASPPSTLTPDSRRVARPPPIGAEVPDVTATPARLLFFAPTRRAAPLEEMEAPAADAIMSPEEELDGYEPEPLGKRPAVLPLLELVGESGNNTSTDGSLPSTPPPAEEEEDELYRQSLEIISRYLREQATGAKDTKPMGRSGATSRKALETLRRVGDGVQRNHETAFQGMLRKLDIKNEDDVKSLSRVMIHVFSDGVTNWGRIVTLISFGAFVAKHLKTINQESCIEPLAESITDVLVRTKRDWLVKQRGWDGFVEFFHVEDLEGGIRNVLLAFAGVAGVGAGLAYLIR

The test system of assay [1] is H929 multiple myeloma tumour line. As to the kind of experiment: In vitro cytotoxicity, Microculture Tetrazolium Assay. The assay is classed as cell-based. The settings on record: H929 cells, 48 hours exposure, MTT, read-out: IC50 (μM) MTT H929. As for the experimental part:
The cytotoxicity studies were carried out on the H929 multiple myeloma tumour line.
The cells are distributed onto microplates and exposed to the test compounds for 48 hours.

[2] abbreviates: fluorescence polarisation test, Method 2 values are underlined in the patent (underlining not visible here).
Where [3] appears, read: fluorescence polarisation, Method 1, or Method 2.

Consider `Cc1c(-c2c(-c3ccco3)sc3ncnc(O[C@H](Cc4ccccc4OCc4cc(C5CC5)nn4C)C(=O)O)c23)ccc(OCCN2CCN(C)CC2)c1Cl` [Example 226, (2R)-2-{[(5Sa)-5-{3-chloro-2-methyl-4-[2-(4-methylpiperazin-1-yl)ethoxy]phenyl}-6-(furan-2-yl)thieno[2,3-d]pyrimidin-4-yl]oxy}-3-{2-[(3-cyclopropyl-1-methyl-1H-pyrazol-5-yl)methoxy]phenyl}propanoic acid], for which the results for the IC50 (at Mcl-1 protein (setting [2]); in assay [1]) were 2.4e-08 M and 0.311 µM, respectively.
For the molecule `COc1ccccc1CC(Oc1ncnc2sc(-c3cccc(C)c3)c(-c3ccc(OCCN4CCN(C)CC4)c(Cl)c3C)c12)C(=O)O` [Example 546, (2R)-2-{[(5Sa)-5-{3-chloro-2-methyl-4-[2-(4-methylpiperazin-1-yl)ethoxy]phenyl}-6-(3-methylphenyl)thieno[2,3-d]pyrimidin-4-yl]oxy}-3-(2-methoxyphenyl)propanoic acid], the IC50 at Mcl-1 protein (setting [3]) was 1.7e-08 M; in assay [1] (Homo sapiens, NCI-H929, 48 h) it was 0.416 µM.
With `CCc1sc2ncnc(OC(Cc3ccccc3)C(=O)O)c2c1-c1cc(Cl)c(OCCN2CCN(C)CC2)c(Cl)c1C` [Example 436, (2R)-2-[((5Sa)-5-{3,5-dichloro-2-methyl-4-[2-(4-methylpiperazin-1-yl)ethoxy]phenyl}-6-ethylthieno[2,3-d]pyrimidin-4-yl)oxy]-3-phenylpropanoic acid], the IC50 at Mcl-1 protein (setting [3]) stood at 2.9e-08 M; in assay [1] (Homo sapiens, NCI-H929, 48 h), 15.1 µM.
`Cc1c(-c2c(-c3ccc(F)cc3)sc3ncnc(OC(Cc4ccccc4OCC(F)F)C(=O)O)c23)ccc(OCCN2CCN(C)CC2)c1Cl` [Example 4, (2R)-2-{[(5Sa)-5-{3-chloro-2-methyl-4-[2-(4-methylpiperazin-1-yl)ethoxy]phenyl}-6-(4-fluorophenyl)thieno[2,3-d]pyrimidin-4-yl]oxy}-3-[2-(2,2-difluoroethoxy)phenyl]propanoic acid]: the IC50 amounted to 1.6e-08 M on Mcl-1 protein (setting [2]) and 0.192 µM in assay [1] (Homo sapiens, NCI-H929, 48 h).
Regarding `COCCOCCn1nccc1COc1ccccc1CC(Oc1ncnc2sc(-c3ccc(F)cc3)c(-c3ccc(OCCN4CCN(C)CC4)c(Cl)c3C)c12)C(=O)O` [Example 90, (2R)-2-{[(5Sa)-5-{3-chloro-2-methyl-4-[2-(4-methylpiperazin-1-yl)ethoxy]phenyl}-6-(4-fluorophenyl)thieno[2,3-d]pyrimidin-4-yl]oxy}-3-[2-({1-[2-(2-methoxyethoxy)ethyl]-1H-pyrazol-5-yl}methoxy)phenyl]propanoic acid], the IC50 was found to be 3.2e-09 M on Mcl-1 protein (setting [2]) and 0.058 µM in assay [1] (Homo sapiens, NCI-H929, 48 h).
For the molecule `COc1ccccc1CC(Oc1ncnc2sc(-c3cc(F)cc(F)c3)c(-c3ccc(OCCN4CCN(C)CC4)c(Cl)c3C)c12)C(=O)O` [Example 527, (2R)-2-{[(5Sa)-5-{3-chloro-2-methyl-4-[2-(4-methylpiperazin-1-yl)ethoxy]phenyl}-6-(3,5-difluorophenyl)thieno[2,3-d]pyrimidin-4-yl]oxy}-3-(2-methoxyphenyl)propanoic acid], the IC50 on Mcl-1 protein (setting [3]) amounted to 7.1e-08 M; in assay [1] (Homo sapiens, NCI-H929, 48 h), 0.272 µM.
In the case of `Cc1c(-c2c(-c3ccc(F)cc3)sc3ncnc(OC(Cc4ccccc4OCc4ccnc(C(C)C)n4)C(=O)O)c23)ccc(OCCN2CCN(C)CC2)c1Cl` [Example 24, (2R)-2-{[(5Sa)-5-{3-chloro-2-methyl-4-[2-(4-methylpiperazin-1-yl)ethoxy]phenyl}-6-(4-fluorophenyl)thieno[2,3-d]pyrimidin-4-yl]oxy}-3-(2-{[2-(propan-2-yl)pyrimidin-4-yl]methoxy}phenyl)propanoic acid], the IC50 turned out to be 8.1e-09 M on Mcl-1 protein (setting [2]) and 0.012 µM in assay [1] (Homo sapiens, NCI-H929, 48 h).
On to `COc1ccccc1CC(Oc1ncnc2sc(-c3cc(F)cc(Cl)c3)c(-c3ccc(OCCN4CCN(C)CC4)c(Cl)c3C)c12)C(=O)O` [Example 526, (2R)-2-{[6-(3-chloro-5-fluorophenyl)-(5Sa)-5-{3-chloro-2-methyl-4-[2-(4-methylpiperazin-1-yl)ethoxy]phenyl}thieno[2,3-d]pyrimidin-4-yl]oxy}-3-(2-methoxyphenyl)propanoic acid], for which the IC50 at Mcl-1 protein (setting [3]) worked out at 4.1e-09 M; in assay [1] (Homo sapiens, NCI-H929, 48 h), 0.835 µM.
Consider `COCCOc1ccccc1CC(Oc1ncnc2sc(-c3ccc(F)cc3)c(-c3ccc(OCCN4CCN(C)CC4)c(Cl)c3C)c12)C(=O)O` [Example 104, (2R)-2-{[(5Sa)-5-{3-chloro-2-methyl-4-[2-(4-methylpiperazin-1-yl)ethoxy]phenyl}-6-(4-fluorophenyl)thieno[2,3-d]pyrimidin-4-yl]oxy}-3-[2-(2-methoxyethoxy)phenyl]propanoic acid], for which the IC50 on Mcl-1 protein (setting [2]) amounted to 7.5e-09 M; in assay [1] (Homo sapiens, NCI-H929, 48 h), 0.386 µM.
For `COc1cc(F)ccc1CC(Oc1ncnc2sc(-c3ccc(F)o3)c(-c3ccc(OCCN4CCN(C)CC4)c(Cl)c3C)c12)C(=O)O` [Example 692, (2R)-2-{[(5Sa)-5-{3-chloro-2-methyl-4-[2-(4-methylpiperazin-1-yl)ethoxy]phenyl}-6-(5-fluorofuran-2-yl)thieno[2,3-d]pyrimidin-4-yl]oxy}-3-(4-fluoro-2-methoxyphenyl)propanoic acid], the IC50 at Mcl-1 protein (setting [3]) was determined as 1e-08 M; in assay [1] (Homo sapiens, NCI-H929, 48 h) it was 0.079 µM.
As to `Cc1cc(-c2sc3ncnc(OC(Cc4ccccc4)C(=O)O)c3c2-c2ccc(OCCN3CCN(C)CC3)c(Cl)c2C)cs1` [Example 514, (2R)-2-{[(5Sa)-5-{3-chloro-2-methyl-4-[2-(4-methylpiperazin-1-yl)ethoxy]phenyl}-6-(5-methylthiophen-3-yl)thieno[2,3-d]pyrimidin-4-yl]oxy}-3-phenylpropanoic acid], the IC50 at Mcl-1 protein (setting [3]) amounted to 9.6e-08 M; in assay [1] (Homo sapiens, NCI-H929, 48 h), 1.7 µM.
In the case of `COc1ccccc1CC(Oc1ncnc2sc(-c3ccco3)c(-c3ccc(OC4CCCN(C)C4)c(Cl)c3C)c12)C(=O)O` (single isomer, unassigned) [Example 302, (2R)-2-{[(5Sa)-5-{3-chloro-2-methyl-4-[((3S or R)-1-methylpiperidin-3-yl)oxy]phenyl}-6-(furan-2-yl)thieno[2,3-d]pyrimidin-4-yl]oxy}-3-(2-methoxyphenyl)propanoic acid], the IC50 came to 1.4e-08 M on Mcl-1 protein (setting [2]) and 1.59 µM in assay [1].
With `COc1nccc(COc2ccccc2CC(Oc2ncnc3sc(-c4ccc(F)c(F)c4)c(-c4ccc(OCCN5CCN(C)CC5)c(Cl)c4C)c23)C(=O)O)n1` [Example 706, (2R)-2-{[(5Sa)-5-{3-chloro-2-methyl-4-[2-(4-methylpiperazin-1-yl)ethoxy]phenyl}-6-(3,4-difluorophenyl)thieno[2,3-d]pyrimidin-4-yl]oxy}-3-{2-[(2-methoxypyrimidin-4-yl)methoxy]phenyl}propanoic acid], the IC50 at Mcl-1 protein (setting [3]) turned out to be 3.6e-09 M; in assay [1] (Homo sapiens, NCI-H929, 48 h) it was 0.04 µM.
Regarding `CCn1nccc1COc1ccccc1CC(Oc1ncnc2sc(-c3ccco3)c(-c3ccc(OCCN4CCN(C)CC4)c(Cl)c3C)c12)C(=O)O` [Example 264, (2R)-2-{[(5Sa)-5-{3-chloro-2-methyl-4-[2-(4-methylpiperazin-1-yl)ethoxy]phenyl}-6-(furan-2-yl)thieno[2,3-d]pyrimidin-4-yl]oxy}-3-{2-[(1-ethyl-1H-pyrazol-5-yl)methoxy]phenyl}propanoic acid], the IC50 at Mcl-1 protein (setting [2]) worked out at 9.1e-09 M; in assay [1] (Homo sapiens, NCI-H929, 48 h), 0.034 µM.
On to `COc1ccccc1CC(Oc1ncnc2sc(-c3cccc(SC)c3)c(-c3ccc(OCCN4CCN(C)CC4)c(Cl)c3C)c12)C(=O)O` [Example 558, (2R)-2-[((5Sa)-5-{3-chloro-2-methyl-4-[2-(4-methylpiperazin-1-yl)ethoxy]phenyl}-6-[3-(methylsulfanyl)phenyl]thieno[2,3-d]pyrimidin-4-yl)oxy]-3-(2-methoxyphenyl)propanoic acid], for which the IC50 was found to be 5.9e-08 M at Mcl-1 protein (setting [3]) and 0.742 µM in assay [1] (Homo sapiens, NCI-H929, 48 h).
On to `Cc1c(-c2c(-c3ccco3)sc3ncnc(OC(Cc4ccccc4OCC(=O)Nc4ccccc4)C(=O)O)c23)ccc(OCCN2CCN(C)CC2)c1Cl` [Example 219, (2R)-2-{[(5Sa)-5-{3-chloro-2-methyl-4-[2-(4-methylpiperazin-1-yl)ethoxy]phenyl}-6-(furan-2-yl)thieno[2,3-d]pyrimidin-4-yl]oxy}-3-{2-[2-oxo-2-(phenylamino)ethoxy]phenyl}propanoic acid], for which the IC50 on Mcl-1 protein (setting [2]) was 9.9e-09 M; in assay [1] (Homo sapiens, NCI-H929, 48 h), 0.191 µM.
In the case of `Cc1cscc1-c1sc2ncnc(O[C@H](Cc3ccccc3)C(=O)O)c2c1-c1ccc(OCCN2CCN(C)CC2)c(Cl)c1C` [Example 516, (2R)-2-{[(5Sa)-5-{3-chloro-2-methyl-4-[2-(4-methylpiperazin-1-yl)ethoxy]phenyl}-6-(4-methylthiophen-3-yl)thieno[2,3-d]pyrimidin-4-yl]oxy}-3-phenylpropanoic acid], the IC50 at Mcl-1 protein (setting [3]) is 1.3e-07 M; in assay [1] it was 5.07 µM.
On to `Cc1c(-c2c(-c3ccco3)sc3ncnc(O[C@H](Cc4ccccc4OCc4ccnc(N)n4)C(=O)O)c23)ccc(OCCN2CCN(C)CC2)c1Cl` [Example 250, (2R)-3-{2-[(2-aminopyrimidin-4-yl)methoxy]phenyl}-2-{[(5Sa)-5-{3-chloro-2-methyl-4-[2-(4-methylpiperazin-1-yl)ethoxy]phenyl}-6-(furan-2-yl)thieno[2,3-d]pyrimidin-4-yl]oxy}propanoic acid], for which the IC50 at Mcl-1 protein (setting [2]) was determined as 3.6e-09 M; in assay [1] it was 0.499 µM.
`Cc1c(-c2c(-c3ccco3)sc3ncnc(OC(Cc4ccccc4OCc4cccs4)C(=O)O)c23)ccc(OCCN2CCN(C)CC2)c1Cl` [Example 245, (2R)-2-{[(5Sa)-5-{3-chloro-2-methyl-4-[2-(4-methylpiperazin-1-yl)ethoxy]phenyl}-6-(furan-2-yl)thieno[2,3-d]pyrimidin-4-yl]oxy}-3-[2-(thiophen-2-ylmethoxy)phenyl]propanoic acid]: the IC50 is 5.8e-09 M on Mcl-1 protein (setting [2]) and 0.099 µM in assay [1] (Homo sapiens, NCI-H929, 48 h).
